# Tests used:
# [1] = biological target: T1, Ephrin type-B receptor 6 (Homo sapiens) (UniProt O15197); assay: Selectivity interaction (KinomeScan (DiscoverX)) EUB0001049a EPHB6; conditions: at 1 µM
# T1 sequence (whole entry): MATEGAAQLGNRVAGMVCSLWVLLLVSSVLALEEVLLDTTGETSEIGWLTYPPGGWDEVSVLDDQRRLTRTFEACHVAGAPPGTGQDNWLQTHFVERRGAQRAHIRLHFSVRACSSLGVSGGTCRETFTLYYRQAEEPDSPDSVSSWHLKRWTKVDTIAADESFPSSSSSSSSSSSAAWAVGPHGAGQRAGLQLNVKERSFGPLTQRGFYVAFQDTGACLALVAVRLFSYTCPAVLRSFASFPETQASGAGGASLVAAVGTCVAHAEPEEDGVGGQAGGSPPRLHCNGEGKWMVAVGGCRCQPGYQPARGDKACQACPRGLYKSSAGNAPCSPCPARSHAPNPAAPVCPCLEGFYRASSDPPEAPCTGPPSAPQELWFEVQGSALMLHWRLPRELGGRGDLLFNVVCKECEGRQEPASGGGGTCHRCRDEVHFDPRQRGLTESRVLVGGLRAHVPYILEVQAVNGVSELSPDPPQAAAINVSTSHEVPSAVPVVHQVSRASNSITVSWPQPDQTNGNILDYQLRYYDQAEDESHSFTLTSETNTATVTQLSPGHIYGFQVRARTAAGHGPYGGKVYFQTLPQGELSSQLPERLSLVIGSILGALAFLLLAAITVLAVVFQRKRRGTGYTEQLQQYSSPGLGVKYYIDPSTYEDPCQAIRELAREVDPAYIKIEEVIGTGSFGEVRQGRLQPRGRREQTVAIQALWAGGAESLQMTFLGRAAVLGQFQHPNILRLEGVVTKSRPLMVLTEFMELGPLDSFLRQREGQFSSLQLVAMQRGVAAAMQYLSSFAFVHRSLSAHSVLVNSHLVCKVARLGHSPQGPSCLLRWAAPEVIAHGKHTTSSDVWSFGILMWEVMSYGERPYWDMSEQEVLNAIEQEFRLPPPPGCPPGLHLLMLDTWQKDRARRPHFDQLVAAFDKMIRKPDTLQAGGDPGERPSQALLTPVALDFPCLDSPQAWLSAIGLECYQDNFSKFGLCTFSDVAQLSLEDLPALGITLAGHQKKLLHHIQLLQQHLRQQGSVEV
# [2] = biological target: Calcium/calmodulin-dependent protein kinase type II subunit beta (Homo sapiens) (UniProt Q13554); assay: Selectivity interaction (KinomeScan (DiscoverX)) EUB0000666a CAMK2B; conditions: at 10 µM
# [3] = biological target: T2, Mitogen-activated protein kinase kinase kinase kinase 3 (Homo sapiens) (UniProt Q8IVH8); assay: Selectivity interaction (KinomeScan (DiscoverX)) EUB0000666a MAP4K3; conditions: at 10 µM
# T2 sequence (whole entry): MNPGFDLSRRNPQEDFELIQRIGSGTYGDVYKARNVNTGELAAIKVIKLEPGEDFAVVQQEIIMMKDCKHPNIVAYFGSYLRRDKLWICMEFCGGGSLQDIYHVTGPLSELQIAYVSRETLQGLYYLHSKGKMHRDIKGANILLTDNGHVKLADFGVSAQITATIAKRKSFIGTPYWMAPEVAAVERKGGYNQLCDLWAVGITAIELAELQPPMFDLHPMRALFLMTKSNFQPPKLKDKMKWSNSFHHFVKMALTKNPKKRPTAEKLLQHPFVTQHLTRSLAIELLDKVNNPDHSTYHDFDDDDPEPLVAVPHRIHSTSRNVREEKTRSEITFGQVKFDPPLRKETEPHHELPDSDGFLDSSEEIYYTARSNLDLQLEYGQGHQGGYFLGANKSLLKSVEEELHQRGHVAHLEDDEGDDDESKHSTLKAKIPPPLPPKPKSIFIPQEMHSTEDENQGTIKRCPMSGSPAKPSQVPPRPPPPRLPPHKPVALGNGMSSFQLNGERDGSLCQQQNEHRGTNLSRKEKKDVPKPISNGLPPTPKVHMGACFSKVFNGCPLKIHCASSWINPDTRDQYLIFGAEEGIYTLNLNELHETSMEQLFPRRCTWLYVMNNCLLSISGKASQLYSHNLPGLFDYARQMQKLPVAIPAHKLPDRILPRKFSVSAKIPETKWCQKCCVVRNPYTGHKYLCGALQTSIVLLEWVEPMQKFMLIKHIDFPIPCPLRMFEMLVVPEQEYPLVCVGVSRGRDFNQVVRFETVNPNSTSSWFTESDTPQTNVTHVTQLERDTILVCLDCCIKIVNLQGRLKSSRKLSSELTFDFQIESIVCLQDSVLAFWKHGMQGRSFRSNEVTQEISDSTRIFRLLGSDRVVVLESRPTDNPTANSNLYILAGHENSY
# [4] = biological target: T3, Cyclin-dependent kinase 11A (Homo sapiens) (UniProt Q9UQ88); assay: Selectivity interaction (KinomeScan (DiscoverX)) EUB0000229b CDK11A; conditions: at 10 µM
# T3 sequence (whole entry): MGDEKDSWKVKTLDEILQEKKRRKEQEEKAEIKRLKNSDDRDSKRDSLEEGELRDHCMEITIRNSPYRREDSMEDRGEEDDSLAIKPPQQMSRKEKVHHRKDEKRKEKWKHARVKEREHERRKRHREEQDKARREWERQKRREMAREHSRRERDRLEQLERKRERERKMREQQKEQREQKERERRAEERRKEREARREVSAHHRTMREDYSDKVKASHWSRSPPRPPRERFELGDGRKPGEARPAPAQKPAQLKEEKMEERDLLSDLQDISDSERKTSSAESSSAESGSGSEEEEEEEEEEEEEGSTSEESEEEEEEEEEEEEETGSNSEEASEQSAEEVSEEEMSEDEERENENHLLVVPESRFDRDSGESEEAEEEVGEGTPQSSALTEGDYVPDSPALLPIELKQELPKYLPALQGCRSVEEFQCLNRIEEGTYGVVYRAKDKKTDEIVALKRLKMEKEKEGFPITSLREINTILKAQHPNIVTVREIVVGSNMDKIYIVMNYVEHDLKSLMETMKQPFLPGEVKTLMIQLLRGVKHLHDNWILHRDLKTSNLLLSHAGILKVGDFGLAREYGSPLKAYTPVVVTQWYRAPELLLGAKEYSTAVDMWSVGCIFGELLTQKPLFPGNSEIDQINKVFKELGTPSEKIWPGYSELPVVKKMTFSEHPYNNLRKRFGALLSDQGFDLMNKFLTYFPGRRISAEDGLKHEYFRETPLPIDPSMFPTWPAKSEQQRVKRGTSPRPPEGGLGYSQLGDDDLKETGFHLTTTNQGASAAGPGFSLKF
# [5] = biological target: Macrophage colony-stimulating factor 1 receptor (Homo sapiens) (UniProt P07333); assay: Selectivity interaction (KinomeScan (DiscoverX)) EUB0000229b CSF1R; conditions: at 10 µM
# [6] = biological target: Ribosomal protein S6 kinase alpha-5 (Homo sapiens) (UniProt O75582); assay: Selectivity interaction (Upstate Kinase Profiler service (Millipore)) EUB0000056c RPS6KA5; conditions: at 1 µM
# Chain of Ribosomal protein S6 kinase alpha-5 (Homo sapiens) (O75582 whole entry, looked up): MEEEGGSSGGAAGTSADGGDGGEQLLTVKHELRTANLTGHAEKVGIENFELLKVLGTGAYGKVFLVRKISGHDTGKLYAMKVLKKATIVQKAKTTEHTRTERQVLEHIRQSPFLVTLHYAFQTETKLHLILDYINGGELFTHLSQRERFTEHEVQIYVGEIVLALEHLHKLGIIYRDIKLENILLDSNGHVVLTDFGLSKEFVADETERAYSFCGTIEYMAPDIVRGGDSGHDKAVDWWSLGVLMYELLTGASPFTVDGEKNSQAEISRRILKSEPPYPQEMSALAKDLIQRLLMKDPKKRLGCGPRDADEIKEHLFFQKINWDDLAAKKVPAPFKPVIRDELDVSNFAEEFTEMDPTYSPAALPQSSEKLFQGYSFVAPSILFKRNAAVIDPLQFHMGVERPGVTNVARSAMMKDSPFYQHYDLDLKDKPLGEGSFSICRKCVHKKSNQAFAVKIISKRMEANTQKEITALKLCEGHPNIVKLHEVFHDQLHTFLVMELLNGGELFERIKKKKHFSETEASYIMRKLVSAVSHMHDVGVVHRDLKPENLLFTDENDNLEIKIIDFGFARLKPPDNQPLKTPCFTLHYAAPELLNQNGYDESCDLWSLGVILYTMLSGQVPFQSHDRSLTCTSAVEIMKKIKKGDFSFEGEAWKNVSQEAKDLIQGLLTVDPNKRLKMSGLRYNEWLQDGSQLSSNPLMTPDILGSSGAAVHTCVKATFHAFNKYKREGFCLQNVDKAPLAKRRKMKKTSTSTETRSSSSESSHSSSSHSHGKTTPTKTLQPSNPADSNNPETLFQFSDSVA
# Chain of Calcium/calmodulin-dependent protein kinase type II subunit beta (Homo sapiens) (Q13554 whole entry): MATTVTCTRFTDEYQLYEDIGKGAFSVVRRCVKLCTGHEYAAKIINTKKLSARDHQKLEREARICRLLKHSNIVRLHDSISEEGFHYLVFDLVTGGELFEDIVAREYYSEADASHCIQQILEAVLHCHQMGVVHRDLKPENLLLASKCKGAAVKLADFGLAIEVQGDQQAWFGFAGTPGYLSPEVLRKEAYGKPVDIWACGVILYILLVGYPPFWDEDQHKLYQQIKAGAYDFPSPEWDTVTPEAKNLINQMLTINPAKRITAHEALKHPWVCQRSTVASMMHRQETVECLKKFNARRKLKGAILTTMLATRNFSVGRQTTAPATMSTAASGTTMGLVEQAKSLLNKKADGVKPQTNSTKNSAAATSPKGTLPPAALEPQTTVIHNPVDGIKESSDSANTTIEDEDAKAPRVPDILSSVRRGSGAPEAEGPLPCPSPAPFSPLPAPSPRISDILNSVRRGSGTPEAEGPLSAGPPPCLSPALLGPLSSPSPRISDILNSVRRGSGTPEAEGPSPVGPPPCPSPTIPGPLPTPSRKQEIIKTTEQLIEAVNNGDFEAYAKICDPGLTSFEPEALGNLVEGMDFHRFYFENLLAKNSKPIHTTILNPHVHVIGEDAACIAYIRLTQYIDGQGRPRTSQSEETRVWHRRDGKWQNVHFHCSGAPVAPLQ
# Chain of Macrophage colony-stimulating factor 1 receptor (Homo sapiens) (P07333 whole entry): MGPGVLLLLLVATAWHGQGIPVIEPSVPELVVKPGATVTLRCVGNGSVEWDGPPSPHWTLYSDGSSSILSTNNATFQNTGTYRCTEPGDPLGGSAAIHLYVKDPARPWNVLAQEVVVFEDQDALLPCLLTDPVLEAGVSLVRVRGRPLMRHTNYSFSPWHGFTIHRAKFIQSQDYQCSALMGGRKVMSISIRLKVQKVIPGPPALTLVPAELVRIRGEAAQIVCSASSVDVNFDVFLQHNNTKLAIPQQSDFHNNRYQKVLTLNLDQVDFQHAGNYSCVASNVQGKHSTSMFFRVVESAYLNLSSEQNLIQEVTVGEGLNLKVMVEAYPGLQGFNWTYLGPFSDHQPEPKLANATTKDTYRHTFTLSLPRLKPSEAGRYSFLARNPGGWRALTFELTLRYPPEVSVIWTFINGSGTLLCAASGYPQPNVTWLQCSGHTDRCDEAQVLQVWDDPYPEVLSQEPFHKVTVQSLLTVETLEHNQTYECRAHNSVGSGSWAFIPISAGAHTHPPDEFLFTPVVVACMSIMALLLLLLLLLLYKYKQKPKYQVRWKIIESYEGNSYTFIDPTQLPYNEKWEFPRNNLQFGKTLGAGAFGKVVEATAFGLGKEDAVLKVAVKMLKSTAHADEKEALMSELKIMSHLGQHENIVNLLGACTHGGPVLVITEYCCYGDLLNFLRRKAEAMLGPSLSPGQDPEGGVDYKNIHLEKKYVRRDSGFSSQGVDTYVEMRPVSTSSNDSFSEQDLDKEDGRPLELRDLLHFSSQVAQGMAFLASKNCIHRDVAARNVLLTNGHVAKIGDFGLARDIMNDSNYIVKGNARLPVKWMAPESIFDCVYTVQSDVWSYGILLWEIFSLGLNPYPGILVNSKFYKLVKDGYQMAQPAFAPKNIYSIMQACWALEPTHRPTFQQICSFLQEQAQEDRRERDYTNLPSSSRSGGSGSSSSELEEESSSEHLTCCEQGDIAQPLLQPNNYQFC
smiles,measurement,setting,value
COc1cc(Nc2nc(C)cc(-c3cnn4nc(OC)ccc34)n2)cc(C(F)(F)F)c1,% of control,[1],78%
O=C(NOC[C@H](O)CO)c1ccc(F)c(F)c1Nc1ccc(I)cc1F,% of control,[2],100%
same,% of control,[3],87%
COc1cc(N(C)c2ccnc3ccc(C(F)(F)F)cc23)cc(OC)c1OC,% binding,[4],97%
same,% binding,[5],91%
Cc1ccc(-c2ccc3c(ccc4sc5c(c43)NC[C@@H](C)NC5=O)n2)cn1,% of inhibition,[6],-9%

# Source: ChEMBL document CHEMBL5465560, “Selectivity Literature for EUbOPEN Chemogenomic Library” (2024)
